PMC4489196, “Visualization of regional tau deposits using ^3H-THK5117 in Alzheimer brain tissue” (Acta Neuropathologica Communications, 2015)
Values joined by “and” are separate entries in the source; they are usually repeats but may differ in a detail not shown here. Equal values may be shown once. Read-outs that look alike come from different tables or passages of the source. Each block holds one molecule with its values, some of them ahead of it.

Experiments:
[1] = tested on: ^3H-PIB binding sites (amyloid); test: Competition between ^3H-PIB and unlabeled THK5117; set-up: species or system Human
[2] = biological target: neurofibrillary tangles (Homo sapiens, UniProt P10636); test: THK5117 autofluorescence staining with adjacent AT8 immunostaining; assay type: binding; settings: paraffin hippocampus section of another AD case; confirmed with AT8 on adjacent section
Chain of neurofibrillary tangles (P10636 623-758 limits assumed): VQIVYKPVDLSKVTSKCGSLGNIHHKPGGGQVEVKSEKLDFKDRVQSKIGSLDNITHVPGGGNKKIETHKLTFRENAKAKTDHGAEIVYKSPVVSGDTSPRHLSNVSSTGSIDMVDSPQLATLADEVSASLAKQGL
Text: A paraffin section from hippocampus of a patient with confirmed AD (at death, Braak VI, from the Netherlands brain bank) were quenched and stained with THK5117 following the procedure used by Okamura and colleagues for autofluorescence studies. An adjacent section was labeled with AT8 anti-tau and assessed using the EnVision + System HRP (DAB) (Dako Denmark) detection method.

[3] = tested on: ^3H-THK5117 binding sites in hippocampus homogenates of one AD case (tau); test: Competition binding THK5117 against ^3H-THK5117 (3 nM) in hippocampus homogenates; set-up: species or system Human
Description: (§1) Human brain tissues from eight Alzheimer patients and eight controls were obtained from the Netherlands Brain Bank (demographic details in Table 1), and homogenized in PBS containing 0.1 % BSA and protease/phosphatase inhibitor.
(§2) The specificity and selectivity of ^3H-THK5117 binding was determined by incubating homogenates (0.1 mg tissue) from Alzheimer’s patients’ temporal cortex and hippocampus with ^3H-THK5117 (3 nM), in the presence of THK5117 (10^−5 -10^−13 M), FDDNP (10^−6 -10^−14 M) or BTA-1 (10^−5 -10^−13 M). The results were analyzed with GraphPad Prism software, and the resulting inhibitory constants (Ki) were determined.
A. Saturation binding curve and B. Scatchard plot of ^3H-THK5117 (0.04-270nM) for hippocampus homogenates of one AD patient. The plain regression line was determined by GraphPad Prism software and corresponds to the low affinity site. The dotted regression line was determined manually and corresponds to the high affinity site. Corresponding Kd and Bmax values are mentioned below the curve. C. Competition binding curve between THK5117 (10^-13-10^-5M) and ^3H-THK5117 (3nM) for hippocampus homogenates of one AD case. […] Ki Sup Hi = Ki for super high binding site; Ki Hi = Ki for high binding site; Ki Lo = Ki for low binding site.

[4] = biological target: ^3H-THK5117 binding sites in AD temporal cortex homogenates (tau) (Homo sapiens, UniProt P10636); test: Competition binding against ^3H-THK5117 (3 nM) in temporal cortex homogenates; settings: for Ki: AD temporal cortices
Chain of ^3H-THK5117 binding sites in AD temporal cortex homogenates (tau) (P10636 623-708 limits assumed): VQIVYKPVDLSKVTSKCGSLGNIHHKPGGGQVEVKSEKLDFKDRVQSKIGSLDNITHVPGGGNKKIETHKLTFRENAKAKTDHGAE
Description: as §1, §2

[5] = biological target: post-mortem AD temporal brain tissue homogenates (tau) (Homo sapiens, UniProt P10636); test: Saturation binding assay of ^3H-THK5117 in temporal cortex homogenates; settings: AD temporal lobe homogenates
Chain of post-mortem AD temporal brain tissue homogenates (tau) (P10636 623-758 limits assumed): as the sequence (P10636 623-758 limits assumed) above
Description: as §1
(§3) Saturation binding assays were carried out with incubation of temporal cortex and hippocampus homogenates (0.1 mg tissue) with ^3H-THK5117 (0.04-270 nM) for 2 h at room temperature. Non-specific binding was determined with 1 μM THK5117. The binding reaction was terminated by filtering through glass fiber filters (pre-soaked for 3 h in 0.3 % polyethylenimine), and rinsing three times with cold binding buffer, and counted with a beta scintillation counter (Beckman Coulter LS6500). The results were analyzed with GraphPad Prism software (version 5.0f for Mac OS X, GraphPad Software, San Diego California USA). The equilibrium dissociation constant (Kd) and maximum number of binding sites (Bmax) were then determined.

[6] = biological target: hippocampus homogenates of one AD patient (tau) (Homo sapiens, UniProt P10636); test: Saturation binding assay of ^3H-THK5117 in hippocampus homogenates; settings: one Alzheimer brain
Chain of hippocampus homogenates of one AD patient (tau) (P10636 623-695 limits assumed): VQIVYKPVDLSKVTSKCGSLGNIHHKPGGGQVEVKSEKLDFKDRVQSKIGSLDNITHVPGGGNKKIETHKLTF
Description: as §1, §3

[7] = tested on: tau (AT8) in paraffin sections of anterior and posterior hippocampus; test: ^3H-THK5117 autoradiography versus AT8 immunostaining on paraffin hippocampus sections; assay type: binding, Human; settings: adjacent paraffin sections, AD case one
Text: Routine pathology with AT8 has been performed on anterior and posterior hippocampus paraffin sections from the right hemisphere of the three AD cases. Autoradiographies with ^3H-THK5117 on adjacent sections have been performed after deparafinization following the same protocol as cited above.

[8] = tested on: brain homogenates from patients with AD (tau); test: Regional binding studies with ^3H-THK5117 (3 nM) in brain homogenates; set-up: species or system Human; settings: AD cases
Description: as §1
Regional binding studies with ^3H-THK5117 were carried out on the brain homogenates from temporal cortex, frontal lobe, parietal lobe, caudate nucleus, hippocampus and cerebellum that were incubated with a single concentration of ^3H-THK5117 (3 nM). Non-specific binding was determined with 1 μM of THK5117. Comparisons between AD and control tissues were made using Mann–Whitney non-parametrical tests, with a threshold for significance of p < 0.05.

[9] = tested on: frozen brain sections from left hemispheres of AD cases and control case (tau); test: ^3H-THK5117 autoradiography on large frozen brain hemisphere sections; assay type: binding, Human
Text: Postmortem brain tissue for autoradiography studies was obtained from three patients with AD that all three had been clinically followed (by A.N.) at the Department of Geriatric Medicine, Karolinska University Hospital, Huddinge, Sweden. The left hemisphere of each brain was frozen in large block sections. The right hemispheres were fixed in formaldehyde, brain tissue was sampled according to the BrainNet Europe protocol and histopathological investigations were undertaken (by I.N.) to confirm AD pathology (see Additional file 1).
Frozen brain sections ([…]) from the left hemispheres of the three AD cases and the healthy control case were cut with a cryostat at −20 °C and thaw-mounted on chrome alum gelatin-subbed slides following a previously described protocol.
For each case, frozen sections were dried, pre-incubated for 10 min with PBS + 0.1%BSA, and were then incubated for one hour with 4 nM ^3H-THK5117. The non-specific binding assay was performed on adjacent sections in the presence of 10 μM THK5117. After incubation, sections were washed 3 times for 5 min with cold incubation buffer, dipped into cold distilled water, and allowed to dry for at least 24 h. A Fujifilm BAS-2500 phosphor imaging plate was then exposed to the section, along with a tritium standard, for three days (Larodan Fine Chemical AB, Malmö, Sweden) before being scanned by a phosphoimager Fujifilm BAS-2500.
Binding of the tracer was quantitatively assessed using MultiGauge Fujifilm software (V3.0). Two independent raters manually segmented different regions of interest, as defined by Duvernoy in “The Human Hippocampus” [19], resulting in regional mean uptake values for each segment. Inter-rater agreement was assessed for all uptake values using a Bland-Altman plot, with limits of agreement set to 95 %. When agreement was satisfactory, regional uptake values from both raters were averaged for subsequent analyses.

SMILES: CNc1ccc(-c2ccc3cc(OCC(O)CF)ccc3n2)cc1 (stereo not shown) [THK5117]
Competition between ^3H-PIB and unlabeled THK5117 [1]: No competition | Autofluorescence staining [2]: THK5117 binding on the neurofibrillary tangles | Number of binding sites in competition binding curve [3]: two different binding sites | Ki ([4]; ^3H-THK5117 3 nM, averaged from ten experiments, read-out: Ki2): 16 nM | Ki ([4]; ^3H-THK5117 3 nM, averaged from ten experiments, read-out: Ki3): 750 nM | Ki ([4]; potential third site, model constraint >100 for start of curve, ten experiments, read-out: Ki1): 0.001 nM

Competition with ^3H-THK5117 ([4]; temporal cortex homogenates of four AD cases, ^3H-THK5117 3 nM): No competition
SMILES: CNc1ccc(-c2nc3ccccc3s2)cc1 [BTA-1, 2-(4-methylaminophenyl)benzothiazole, reference compound]

SMILES: CNc1ccc(-c2ccc3cc(OCC(O)CF)ccc3n2)cc1 (stereo not shown) [^3H-THK5117, 1-Fluoro-3-((2-(4-([^3H]methylamino)phenyl)quinolin-6-yl)oxy)propan-2-ol]
Kd ([5]; high affinity site, determined manually from Scatchard plot, averaged from seven experiments, read-out: Kd1): 2.2 nM | Kd ([5]; low affinity site (GraphPad Prism fit), read-out: Kd2): 24 nM and 23.6 nM | Kd ([6]; high affinity site, read-out: Kd, first binding site): 3.1 nM | Kd ([6]; low affinity site, read-out: Kd, second binding site): 34 nM

SMILES: [3H]CNc1ccc(-c2ccc3cc(OCC(O)CF)ccc3n2)cc1 (stereo not shown) [^3H-THK5117, 1-Fluoro-3-((2-(4-([^3H]methylamino)phenyl)quinolin-6-yl)oxy)propan-2-ol]
Autoradiography binding pattern versus AT8 immunostaining [7]: identical binding pattern | Regional binding of ^3H-THK5117 ([8]; caudate nucleus homogenates): 198 ± 30 fmol/mg | Regional binding of ^3H-THK5117 ([8]; cerebellum homogenates): very low | Regional binding of ^3H-THK5117 ([8]; hippocampus homogenates): 198 ± 67 fmol/mg | Regional binding of ^3H-THK5117 ([8]; parietal lobe homogenates): 105 ± 46 fmol/mg | Regional binding of ^3H-THK5117 ([8]; temporal lobe homogenates): 110 ± 47 fmol/mg | Bmax1 ([5]; high affinity site, determined manually from Scatchard plot): 250 fmol/mg | Bmax2 ([5]; low affinity site (GraphPad Prism fit)): 1416 fmol/mg | ^3H-THK5117 specific binding ([9]; Amygdala, AD Case 1): 507 fmol/mg | ^3H-THK5117 specific binding ([9]; Cingulate gyrus, AD Case 1): 292 fmol/mg | ^3H-THK5117 specific binding ([9]; Cingulate gyrus, AD Case 2): 120 fmol/mg | ^3H-THK5117 specific binding ([9]; Cingulate gyrus, AD Case 3): 110 fmol/mg | ^3H-THK5117 specific binding ([9]; Entorhinal cortex, AD Case 1): 713 fmol/mg | ^3H-THK5117 specific binding ([9]; Entorhinal cortex, AD Case 2): 126 fmol/mg | ^3H-THK5117 specific binding ([9]; Entorhinal cortex, AD Case 3): 53 fmol/mg | ^3H-THK5117 specific binding ([9]; Fusiform gyrus, AD Case 1): 585 fmol/mg | ^3H-THK5117 specific binding ([9]; Fusiform gyrus, AD Case 2): 189 fmol/mg | ^3H-THK5117 specific binding ([9]; Fusiform gyrus, AD Case 3): 52 fmol/mg | ^3H-THK5117 specific binding ([9]; Hippocampus, AD Case 1): 693 fmol/mg | ^3H-THK5117 specific binding ([9]; Hippocampus, AD Case 2): 171 fmol/mg | ^3H-THK5117 specific binding ([9]; Hippocampus, AD Case 3): 112 fmol/mg | ^3H-THK5117 specific binding ([9]; Inferior temporal gyrus, AD Case 1): 764 fmol/mg | ^3H-THK5117 specific binding ([9]; Inferior temporal gyrus, AD Case 2): 125 fmol/mg | ^3H-THK5117 specific binding ([9]; Inferior temporal gyrus, AD Case 3): 59 fmol/mg | ^3H-THK5117 specific binding ([9]; Insular cortex, AD Case 1): 423 fmol/mg | ^3H-THK5117 specific binding ([9]; Insular cortex, AD Case 2): 68 fmol/mg | ^3H-THK5117 specific binding ([9]; Insular cortex, AD Case 3): 50 fmol/mg | ^3H-THK5117 specific binding ([9]; Middle frontal gyrus, AD Case 1): 276 fmol/mg | ^3H-THK5117 specific binding ([9]; Middle frontal gyrus, AD Case 2): 55 fmol/mg | ^3H-THK5117 specific binding ([9]; Middle frontal gyrus, AD Case 3): 56 fmol/mg | ^3H-THK5117 specific binding ([9]; Middle temporal gyrus, AD Case 1): 495 fmol/mg | ^3H-THK5117 specific binding ([9]; Middle temporal gyrus, AD Case 2): 140 fmol/mg | ^3H-THK5117 specific binding ([9]; Middle temporal gyrus, AD Case 3): 48 fmol/mg | ^3H-THK5117 specific binding ([9]; Postcentral gyrus, AD Case 1): 312 fmol/mg | ^3H-THK5117 specific binding ([9]; Postcentral gyrus, AD Case 2): 77 fmol/mg | ^3H-THK5117 specific binding ([9]; Postcentral gyrus, AD Case 3): 75 fmol/mg | ^3H-THK5117 specific binding ([9]; Precentral gyrus, AD Case 1): 310 fmol/mg | ^3H-THK5117 specific binding ([9]; Precentral gyrus, AD Case 2): 32 fmol/mg | ^3H-THK5117 specific binding ([9]; Precentral gyrus, AD Case 3): 102 fmol/mg | ^3H-THK5117 specific binding ([9]; Putamen, AD Case 1): 242 fmol/mg | ^3H-THK5117 specific binding ([9]; Superior frontal gyrus, AD Case 1): 344 fmol/mg | ^3H-THK5117 specific binding ([9]; Superior frontal gyrus, AD Case 2): 57 fmol/mg | ^3H-THK5117 specific binding ([9]; Superior frontal gyrus, AD Case 3): 114 fmol/mg | ^3H-THK5117 specific binding ([9]; Superior temporal gyrus, AD Case 1): 363 fmol/mg | ^3H-THK5117 specific binding ([9]; Superior temporal gyrus, AD Case 2): 114 fmol/mg | ^3H-THK5117 specific binding ([9]; Superior temporal gyrus, AD Case 3): 53 fmol/mg | ^3H-THK5117 specific binding ([9]; Thalamus, AD Case 1): 349 fmol/mg | Autoradiography binding in control case ([9]; control case compared to the three AD cases, 4 nM): Low and regional binding | Bmax, first binding site ([6]; high affinity site): 250 fmol/mg | Bmax, second binding site ([6]; low affinity site): 1226 fmol/mg
